In patent US9676758B2, “1-heteroaryl-indoline-4-carboxamides as modulators of GPR52 useful for the treatment or prevention of disorders related thereto” (Arena Pharmaceuticals, Inc., priority 2015, dated 2017) one finds inhibition and EC50 data, which are given here for 32 compounds.

T1 sequence (Q9Y2T5 whole entry): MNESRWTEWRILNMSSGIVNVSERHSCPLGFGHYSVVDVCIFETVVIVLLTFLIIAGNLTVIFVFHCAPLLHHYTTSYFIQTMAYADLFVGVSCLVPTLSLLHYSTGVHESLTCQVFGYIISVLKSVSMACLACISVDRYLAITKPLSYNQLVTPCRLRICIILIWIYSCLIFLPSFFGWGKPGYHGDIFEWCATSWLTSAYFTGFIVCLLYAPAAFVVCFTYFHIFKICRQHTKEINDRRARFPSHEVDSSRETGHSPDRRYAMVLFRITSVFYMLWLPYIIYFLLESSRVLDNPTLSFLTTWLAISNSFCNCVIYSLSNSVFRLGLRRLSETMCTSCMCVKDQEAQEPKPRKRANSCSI

One test has as its system male C57/BL6 mice. Description: Mouse basal locomotor activity. It is filed as in vivo. The conditions noted are these: po, 10 mg/kg P.O. The procedure:
To measure basal locomotor activity, male C57/BL6 mice (8-16 weeks) (Jackson Laboratories, Sacramento, Calif.) were transferred in home cages to the testing room approximately 60 minutes prior to testing. Approximately 15 minutes after arrival in the testing room, a dark cycle commenced, with lights turning off and infrared lights turning on for experimenter visibility. Thirty minutes after the lights were turned off, animals were individually weighed and administered either vehicle (20% hydroxypropyl-β-cyclodextrin) Compound 13 (1, 2, 5, 10, or 20 mg/kg P.O.), or another GPR52 agonist (10 mg/kg P.O.) and returned to home cages. Fifteen minutes later, mice were placed into locomotor cages and activity was recorded for 60 minutes.
What is called inhibition is the relative decrease from the control value, in per cent. Higher therefore signals a strong effect. `NC(=O)c1cccc2c1CCN2c1cc(Cc2ccc(F)c(C(F)(F)F)c2)ccn1` [Compound 61, 1-(4-(4-Fluoro-3-(trifluoromethyl)benzyl)pyridin-2-yl)indoline-4-carboxamide] gave an inhibition at 10 mg/kg of 61%.
In turn, `NC(=O)c1cccc2c1CCN2c1cc(Cc2ccc3occc3c2)ccn1` [Compound 106, 1-(4-(Benzofuran-5-ylmethyl)pyridin-2-yl)indoline-4-carboxamide] returned an inhibition at 10 mg/kg of 81%.
In the case of `COC[C@@H](O)CNC(=O)c1cccc2c1CCN2c1cc(Cc2cc(F)c(F)c(F)c2)ccn1` [Compound 138, (S)—N-(2-Hydroxy-3-methoxypropyl)-1-(4-(3,4,5-trifluorobenzyl)pyridin-2-yl)indoline-4-carboxamide], testing at 10 mg/kg gave an inhibition of 72%.
In turn, `C[C@@H](O)CNC(=O)c1cccc2c1CCN2c1cc(Cc2cc(F)c(F)c(F)c2)ccn1` [Compound 179, (R)—N-(2-Hydroxypropyl)-1-(4-(3,4,5-trifluorobenzyl)pyridin-2-yl)indoline-4-carboxamide] returned an inhibition at 10 mg/kg of 68%.
The same measure, in the same setting: with `COc1ccc(Cc2ccnc(N3CCc4c(C(=O)NC[C@@H](F)CO)cccc43)c2)cc1F` [Compound 202, (R)—N-(2-Fluoro-3-hydroxypropyl)-1-(4-(3-fluoro-4-methoxybenzyl)pyridin-2-yl)indoline-4-carboxamide] the figure was 67%.

A further test has as its target T1, recombinant GPR52 (Homo sapiens, UniProt Q9Y2T5).
T1 construct: expressed in transfected cells
Description: HTRF cAMP assay for direct cAMP measurement. The test is classed as cell-based. The conditions noted are these: mean EC50; CHO-K1 or HEK293 cells stably expressing recombinant GPR52. The procedure:
HTRF cAMP assays were performed using commercially available assay kits according to the manufacturer's instructions (cAMP Dynamic 2 Assay Kit; #62AM4PEJ, Cisbio Bioassays, Bedford, Mass.). CHO-K1 or HEK293 cells stably expressing recombinant GPR52 were harvested and resuspended in assay buffer (PBS containing 0.5 mM IBMX and 0.1% BSA) at a density of 1.2×10^6 cells per mL. […] Test compounds were solubilized and serially diluted in DMSO using 5-fold dilutions to generate 10-point dose response curves. These serially diluted samples were then further diluted in PBS to achieve a 2× stock. The diluted compounds were transferred to triplicate assay plates (5 μL per well to achieve the 1× final assay concentration). A positive control was included in each assay run. After one-hour incubation at room temperature, 5 μL of cAMP D2 reagent diluted in lysis buffer was added to each well, followed by 5 μL of cryptate reagent. Plates were then incubated at room temperature for one hour prior to reading. Time-resolved fluorescence measurements were collected on an HTRF-capable plate reader (e.g., EnVision® (PerkinElmer, Waltham, Mass.) or PHERAstar (BMG LABTECH, Cary, N.C.)). Counts from the plate reader were fit to the cAMP standard curve included on each plate to determine the amount of cAMP in each test well. Dose-response curves were generated from the cAMP data and analyzed using a nonlinear least squares curve-fitting program to obtain EC50 values.
The EC50 is the concentration needed to bring the measured effect to its halfway point. As for `N#Cc1cc(Cc2ccnc(N3CCc4c(C(N)=O)cccc43)c2)ccc1F` [Compound 60, 1-(4-(3-Cyano-4-fluorobenzyl)pyridin-2-yl)indoline-4-carboxamide], the EC50 stood at 11.7 nM.
Consider `NC(=O)c1cccc2c1CCN2c1cc(Cc2ccc(F)c(CO)c2)ccn1` [Compound 63, 1-(4-(4-Fluoro-3-(hydroxymethyl)benzyl)pyridin-2-yl)indoline-4-carboxamide], for which the EC50 is 36.5 nM.
On to `NC(=O)c1cccc2c1CCN2c1cc(Cc2cccc(OC(F)(F)F)c2)ccn1` [Compound 64, 1-(4-(3-(Trifluoromethoxy)benzyl)pyridin-2-yl)indoline-4-carboxamide], for which the EC50 was 23.1 nM.
For the compound `CC(=O)c1cc(Cc2ccnc(N3CCc4c(C(=O)NCCO)cccc43)c2)ccc1F` [Compound 77, 1-(4-(3-Acetyl-4-fluorobenzyl)pyridin-2-yl)-N-(2-hydroxyethyl)indoline-4-carboxamide], the EC50 was determined as 10.7 nM.
In the case of `CN(C)Cc1cccc(Cc2ccnc(N3CCc4c(C(N)=O)cccc43)c2)c1` [Compound 81, 1-(4-(3-((Dimethylamino)methyl)benzyl)pyridin-2-yl)indoline-4-carboxamide], the EC50 was determined as 3750 nM.
On to `COc1ccc(Cc2ccnc(N3CCc4c(C(=O)NC5CCN(CCO)CC5)cccc43)c2)cc1F` [Compound 91, 1-(4-(3-Fluoro-4-methoxybenzyl)pyridin-2-yl)-N-(1-(2-hydroxyethyl)piperidin-4-yl)indoline-4-carboxamide], for which the EC50 is 1.06 nM.
As for `NC(=O)c1cccc2c1CCN2c1cc(Cc2ccc3c(c2)OCCCO3)ccn1` [Compound 96, 1-(4-((3,4-Dihydro-2H-benzo[b][1,4]dioxepin-7-yl)methyl)pyridin-2-yl)indoline-4-carboxamide], the EC50 stood at 212 nM.
On the same count and under the same terms, in the case of `NC(=O)c1cccc2c1CCN2c1cc(Cc2ccc(O)c(F)c2)ccn1` [Compound 97, 1-(4-(3-Fluoro-4-hydroxybenzyl)pyridin-2-yl)indoline-4-carboxamide] it was 35.9 nM; in that of `CC(=O)Oc1cccc(Cc2ccnc(N3CCc4c(C(N)=O)cccc43)c2)c1` [Compound 102, 3-((2-(4-Carbamoylindolin-1-yl)pyridin-4-yl)methyl)phenyl acetate], 21.4 nM.
The same measure, in the same setting: with `NC(=O)c1cccc2c1CCN2c1cc(Cc2cnc3ccccc3c2)ccn1` [Compound 111, 1-(4-(Quinolin-3-ylmethyl)pyridin-2-yl)indoline-4-carboxamide] the figure was 61 nM; with `Cn1cc(NC(=O)c2cccc3c2CCN3c2cc(Cc3cc(F)c(F)c(F)c3)ccn2)cn1` [Compound 117, N-(1-Methyl-1H-pyrazol-4-yl)-1-(4-(3,4,5-trifluorobenzyl)pyridin-2-yl)indoline-4-carboxamide], 23.6 nM.
Same read-out and setting: with `O=C(Nc1cnn(CCO)c1)c1cccc2c1CCN2c1cc(Cc2cc(F)c(F)c(F)c2)ccn1` [Compound 118, N-(1-(2-Hydroxyethyl)-1H-pyrazol-4-yl)-1-(4-(3,4,5-trifluorobenzyl)pyridin-2-yl)indoline-4-carboxamide] the figure was 9.74 nM; with `NC(=O)c1cccc2c1CCN2c1cc(Cc2cc3ccccc3o2)ccn1` [Compound 119, 1-(4-(Benzofuran-2-ylmethyl)pyridin-2-yl)indoline-4-carboxamide], 38.7 nM; with `COCC(COC)NC(=O)c1cccc2c1CCN2c1cc(Cc2cc(F)c(F)c(F)c2)ccn1` [Compound 131, N-(1,3-Dimethoxypropan-2-yl)-1-(4-(3,4,5-trifluorobenzyl)pyridin-2-yl)indoline-4-carboxamide], 307 nM.
Turning to `O=C(NCCN1CCNC1=O)c1cccc2c1CCN2c1cc(Cc2cc(F)c(F)c(F)c2)ccn1` [Compound 133, N-(2-(2-Oxoimidazolidin-1-yl)ethyl)-1-(4-(3,4,5-trifluorobenzyl)pyridin-2-yl)indoline-4-carboxamide], the EC50 turned out to be 18.3 nM.
As for `O=C(N[C@@H]1CCOC1=O)c1cccc2c1CCN2c1cc(Cc2cc(F)c(F)c(F)c2)ccn1` [Compound 135, (R)-N-(2-Oxotetrahydrofuran-3-yl)-1-(4-(3,4,5-trifluorobenzyl)pyridin-2-yl)indoline-4-carboxamide], the EC50 amounted to 142 nM.
`O=C(NC[C@H](O)c1cccnc1)c1cccc2c1CCN2c1cc(Cc2cc(F)c(F)c(F)c2)ccn1` [Compound 148, (R)-N-(2-Hydroxy-2-(pyridin-3-yl)ethyl)-1-(4-(3,4,5-trifluorobenzyl)pyridin-2-yl)indoline-4-carboxamide]: the EC50 stood at 37 nM.
Turning to `O=C(NCC1(CO)COC1)c1c(F)ccc2c1CCN2c1cc(Cc2cc(F)c(F)c(F)c2)ccn1` [Compound 155, 5-Fluoro-N-((3-(hydroxymethyl)oxetan-3-yl)methyl)-1-(4-(3,4,5-trifluorobenzyl)pyridin-2-yl)indoline-4-carboxamide], the EC50 came out at 55.9 nM.
In the case of `CN(C)CC(O)CNC(=O)c1cccc2c1CCN2c1cc(Cc2cc(F)c(F)c(F)c2)ccn1` (centres unmarked) [Compound 158, N-(3-(Dimethylamino)-2-hydroxypropyl)-1-(4-(3,4,5-trifluorobenzyl)pyridin-2-yl)indoline-4-carboxamide], the EC50 came to 6.76 nM.
Turning to `O=C(NC[C@H](O)C(F)(F)F)c1cccc2c1CCN2c1cc(Cc2cc(F)c(F)c(F)c2)ccn1` [Compound 160, (S)-N-(3,3,3-Trifluoro-2-hydroxypropyl)-1-(4-(3,4,5-trifluorobenzyl)pyridin-2-yl)indoline-4-carboxamide], the EC50 is 292 nM.
As to `COc1ccc(Cc2ccnc(N3CCc4c3ccc(F)c4C(=O)NCCNC(C)=O)c2)cc1F` [Compound 164, N-(2-Acetamidoethyl)-5-fluoro-1-(4-(3-fluoro-4-methoxybenzyl)pyridin-2-yl)indoline-4-carboxamide], the EC50 is 10.9 nM.
Same read-out and setting: in the case of `COC[C@@H](O)CNC(=O)c1cccc2c1CCN2c1cc(Cc2cc(F)cc(Cl)c2)ccn1` [Compound 168, (S)-1-(4-(3-Chloro-5-fluorobenzyl)pyridin-2-yl)-N-(2-hydroxy-3-methoxypropyl)indoline-4-carboxamide] it was 31.6 nM; in that of `CNC(=O)CCNC(=O)c1cccc2c1CCN2c1cc(Cc2cc(F)c(F)c(F)c2)ccn1` [Compound 172], 18 nM; in that of `O=C(NCCO)c1cccc2c1CCN2c1ccnc(Cc2cc(F)cc(Cl)c2)c1` [Compound 187, 1-(2-(3-Chloro-5-fluorobenzyl)pyridin-4-yl)-N-(2-hydroxyethyl)indoline-4-carboxamide], 12.9 nM.
Consider `COC[C@@H](O)CNC(=O)c1cccc2c1CCN2c1ccnc(Cc2cc(F)c(F)c(F)c2)c1` [Compound 189, (S)-N-(2-Hydroxy-3-methoxypropyl)-1-(2-(3,4,5-trifluorobenzyl)pyridin-4-yl)indoline-4-carboxamide], for which the concentration giving a half-maximal response (EC50) was found to be 21.9 nM.
On to `COc1ccc(Cc2ccnc(N3CCc4c(C(=O)NCCF)cccc43)c2)cc1F` [Compound 203, 1-(4-(3-fluoro-4-methoxybenzyl)pyridin-2-yl)-N-(2-fluoroethyl)indoline-4-carboxamide], for which the EC50 is 5.54 nM.
As to `COc1ccc(Cc2ccnc(N3CCc4c(C(=O)NCCOCCO)cccc43)c2)cc1F` [Compound 205, 1-(4-(3-fluoro-4-methoxybenzyl)pyridin-2-yl)-N-(2-(2-hydroxyethoxy)ethyl)indoline-4-carboxamide], the concentration giving a half-maximal response (EC50) was found to be 8.56 nM.
